Measured values taken from patent US8569481B2, “Capture compounds, collections thereof and methods for analyzing the proteome and complex compositions” (Pharmaceuticals, Inc., priority 2001, dated 2013).

Target: Cytochrome C (Bos taurus, UniProt P62894)
Experiment: Time course reaction of cytochrome C with a non-specific capture compound, analyzed by MALDI-TOF mass spectrometry
Assay type: binding
Text: Four different capture compounds (designated HKC 1341 (2,5-dioxopyrrolidin-1-yl acetate), HKC 1343 (2,5-dioxopyrrolidin-1-yl 4-(hydroxybis(4-methoxyphenyl)methyl)benzoate), HKC 1349 (1-(4-((3-(2-hydroxyethoxy)phenyl)(phenyl)(3-phenylpropoxy)methyl)benzoyl)-1H-pyrrole-2,5-dione), and HKC 1365 (3-((4-((2,5-dioxopyrrolidin-1-yloxy)carbonyl)phenyl)diphenylmethoxy)propane-1,2-diyl dipalmitate)) were reacted individually with Cytochrome C (accession number: P00006, FIG. 20c). The capture experiments were analyzed using MALDI-TOF Mass Spectrometry. Binding was performed in 20 μL sample volumes with 5 μM Cytochrome C concentrations in 25 mM HEPES buffer solution, pH 7.0. The trityl-based capture compounds were added to the protein solution at a 10 μM concentration. […] The reaction was quenched using 1 μL of a 100 mM TRIZMA base solution. The capture compound-protein binding mixture was prepared for mass spectrometry analysis by mixing a 1 μL aliquot of the binding reaction with 1 μL of a 10 mg/mL sinapinic acid in 30% aqueous acetonitrile. The sample was deposited as a […] spot on the surface of mass target plates and subsequently air-dried before mass spectrometric analyses.

Chain of Cytochrome C (P62894 whole entry): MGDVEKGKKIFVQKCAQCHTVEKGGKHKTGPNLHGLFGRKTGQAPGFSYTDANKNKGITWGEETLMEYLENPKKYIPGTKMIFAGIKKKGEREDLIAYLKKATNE

## CC(=O)ON1C(=O)CCC1=O [HKC 1341, 2,5-dioxopyrrolidin-1-yl acetate]
After 30 minutes (middle spectrum, FIG. 20f)
  modifications of cytochrome C resulting from binding of the capture compound: 1-9
Time 0 (top spectrum, FIG. 20f)
  modifications of cytochrome C resulting from binding of the capture compound: no modification
